Test results taken from patent US4904669A, “Thiazolo/4,5-c/quinolines as major tranquilizers” (EGIS Gyogyszergyar, priority 1985, dated 1990).

Columns and labels:
[1] = system: conditioned reflex (CR) / unconditioned reflex (UR); test: Screening test, learning and retention during one session conditioning; type: in vivo, rats
Procedure: I was elaborated for studing learning and retention of rats during one session conditioning.
During conditioning rats are trained to jump onto the top of glass cylinder by the electric foot-shock (110 V). The escape reaction (unconditioned reflex, UR) is paired with a bell as conditioned stimulus. The criterion of learning is that conditioned reflex (CR) should be elicited 10 times with 10 s intervals without reinforcement. Retention of CR is taken positive when 24 h following the experiment CR can be elicited. In these experiments animals are distributed into 4 categories on the basis of their learning ability.

[2] = system: conditioned avoidance reflex (CAR); test: Shuttle-box, acquisition of two-way conditioned avoidance reflex (CAR); type: in vivo
Procedure: The acquisition of a two-way conditioned avoidance reflex (CAR) was analyzed in the shuttle-box during 5 consecutive days.
The instrument was constructed by the Research Institute for Electrical Industry (Hungary). It consists of six boxes, each is separated inside by a barrier with a small gate in the middle. […] They were given 100 trials per day. One trial consisted of 15 s intertrial interval, followed by 15 s CS. The last 5 s of CS overlapped the […]. At each learning session the number of CAR and intersignal reactions (IR) was automatically counted and evaluated by multiway analysis of variance (ANOVA).

[3] = system: Benzodiazepine (BZD) receptor; test: Benzodiazepine (BZD) receptor binding, displacement of 3H-diazepam; settings: crude cortical membrane, 1 hr at 0° C., pH 6.8; control drug
Procedure: 10. For the Studies of Benzodiazepine (BZD) Receptor Binding crude cortical membrane preparation was used. 2/ μM ^3 H-diazepam was incubated with the membrane for 1 hr at 0° C. in TRIS-citrate buffer, pH 6.8. Specific binding was determined in the presence of 10/ μM diazepam. In displacement studies chlordiazepoxid was used as control drug.

[4] = system: writhing; test: Writhing test (peritoneal), acetic acid; type: in vivo; settings: Mus musculus, mice, acetic acid i.p.
Procedure: The method originally described by […] (1956) for rats modified by Witkin et al. (1961) and Koster and Anderson (1959), respectively, for mice was applied. Each dose was administered to a group of ten mice and after 20 min. 60 mg/kg of 0.6% acetic acid solution was injected i.p. As a result of chemical irritation of the peritoneum a characteristic writhing can be observed in 90% of control animals. Ten animals treated with compounds under test were kept under observation for 20 min. following i.p. injection of acid. The analgetic effect of individual doses was expressed in per cent: [formula] The denominator was taken as 90% on the basis of preliminary control examination and the […] literature.

[5] = system: pain reactions; test: Hot plate test; type: in vivo, rats; settings: Rattus norvegicus, 56° C. plate, 1 h after administration
Procedure: The method of Woolfe and McDonald (1944) modified by Porszasz and Herr (1950) was used. The effect of each dose of the drugs was checked on a group of 10 rats. The experiments were performed on metal plates maintained at 56° C. The latency time of pain reactions was determined prior to and 1 h after the administration of the test compound. It was regarded as 100% effect if the reaction time was prolonged by more than 2.5 times the control value.

[6] = Acute toxicity (Litchfield and Wilcoxon); settings: rat, in vivo, deaths within 48 h

CNC1=Nc2ccc(Cl)cc2C(c2ccccc2)=[N+]([O-])C1 [Chlordiazepoxide]
inhibition of development of conditioned reflex ([1]; 10 mg/kg): does not influence
number of negative responses (f) ([2]; 10 mg/kg, in words): increased
acquisition of conditioned reflex ([2]; 10 and 5 mg/kg): unchanged
intersignal reactions (IR) ([2]; 10 and 5 mg/kg, in words): unchanged
intersignal reactions (IR) ([2]; s.c., 5 mg/kg, day 1): 10.8
negative responses (-f) ([2]; s.c., 5 mg/kg, day 1): 11.8
positive responses (F), acquisition of conditioned reflex ([2]; s.c., 5 mg/kg, day 1): 23.1
intersignal reactions (IR) ([2]; s.c., 5 mg/kg, day 2): 14.0
negative responses (-f) ([2]; s.c., 5 mg/kg, day 2): 9.1
positive responses (F), acquisition of conditioned reflex ([2]; s.c., 5 mg/kg, day 2): 38.7
intersignal reactions (IR) ([2]; s.c., 5 mg/kg, day 3): 8.9
negative responses (-f) ([2]; s.c., 5 mg/kg, day 3): 10.2
positive responses (F), acquisition of conditioned reflex ([2]; s.c., 5 mg/kg, day 3): 35.6
intersignal reactions (IR) ([2]; s.c., 5 mg/kg, day 4): 6.7
negative responses (-f) ([2]; s.c., 5 mg/kg, day 4): 14.9
positive responses (F), acquisition of conditioned reflex ([2]; s.c., 5 mg/kg, day 4): 41.1
intersignal reactions (IR) ([2]; s.c., 5 mg/kg, day 5): 4.2
negative responses (-f) ([2]; s.c., 5 mg/kg, day 5): 13.0
positive responses (F), acquisition of conditioned reflex ([2]; s.c., 5 mg/kg, day 5): 50.8
intersignal reactions (IR) ([2]; s.c., 10 mg/kg, day 1): 10.8
negative responses (-f) ([2]; s.c., 10 mg/kg, day 1): 32.7
positive responses (F), acquisition of conditioned reflex ([2]; s.c., 10 mg/kg, day 1): 19.9
intersignal reactions (IR) ([2]; s.c., 10 mg/kg, day 2): 14.7
negative responses (-f) ([2]; s.c., 10 mg/kg, day 2): 22.8
positive responses (F), acquisition of conditioned reflex ([2]; s.c., 10 mg/kg, day 2): 37.9
intersignal reactions (IR) ([2]; s.c., 10 mg/kg, day 3): 8.1
negative responses (-f) ([2]; s.c., 10 mg/kg, day 3): 31.8
positive responses (F), acquisition of conditioned reflex ([2]; s.c., 10 mg/kg, day 3): 33.7
intersignal reactions (IR) ([2]; s.c., 10 mg/kg, day 4): 6.3
negative responses (-f) ([2]; s.c., 10 mg/kg, day 4): 36.5
positive responses (F), acquisition of conditioned reflex ([2]; s.c., 10 mg/kg, day 4): 35.6
intersignal reactions (IR) ([2]; s.c., 10 mg/kg, day 5): 6.1
negative responses (-f) ([2]; s.c., 10 mg/kg, day 5): 40.8
positive responses (F), acquisition of conditioned reflex ([2]; s.c., 10 mg/kg, day 5): 41.2
intersignal reactions (IR) ([2]; s.c., 25 mg/kg, day 1): 6.8
negative responses (-f) ([2]; s.c., 25 mg/kg, day 1): 74.0
positive responses (F), acquisition of conditioned reflex ([2]; s.c., 25 mg/kg, day 1): 9.7
intersignal reactions (IR) ([2]; s.c., 25 mg/kg, day 2): 7.3
negative responses (-f) ([2]; s.c., 25 mg/kg, day 2): 67.5
positive responses (F), acquisition of conditioned reflex ([2]; s.c., 25 mg/kg, day 2): 12.2
intersignal reactions (IR) ([2]; s.c., 25 mg/kg, day 3): 6.2
negative responses (-f) ([2]; s.c., 25 mg/kg, day 3): 67.0
positive responses (F), acquisition of conditioned reflex ([2]; s.c., 25 mg/kg, day 3): 17.9
intersignal reactions (IR) ([2]; s.c., 25 mg/kg, day 4): 8.2
negative responses (-f) ([2]; s.c., 25 mg/kg, day 4): 65.6
positive responses (F), acquisition of conditioned reflex ([2]; s.c., 25 mg/kg, day 4): 20.0
intersignal reactions (IR) ([2]; s.c., 25 mg/kg, day 5): 6.0
negative responses (-f) ([2]; s.c., 25 mg/kg, day 5): 59.8
positive responses (F), acquisition of conditioned reflex ([2]; s.c., 25 mg/kg, day 5): 21.4
displacement of 3H-diazepam on the receptor [3]: displaced ^3 H-diazepam on the receptor in concentration dependent manner

c1ccc2c(c1)ncc1ncsc12 [Thiazolo[4,5-c]quinoline-ethanesulfonate, thiazolo[4,5-c]quinoline-ethanesulfonate]
ED50 ([4]; po): 70 mg/kg
ED50 ([4]; sc): 56 mg/kg
intersignal reactions (IR) ([2]; s.c., 10 mg/kg, day 1): 6.5
negative responses (-f) ([2]; s.c., 10 mg/kg, day 1): 17.2
positive responses (F), acquisition of conditioned reflex ([2]; s.c., 10 mg/kg, day 1): 23.5
intersignal reactions (IR) ([2]; s.c., 10 mg/kg, day 2): 8.8
negative responses (-f) ([2]; s.c., 10 mg/kg, day 2): 7.1
positive responses (F), acquisition of conditioned reflex ([2]; s.c., 10 mg/kg, day 2): 44.2
intersignal reactions (IR) ([2]; s.c., 10 mg/kg, day 3): 5.5
negative responses (-f) ([2]; s.c., 10 mg/kg, day 3): 2.4
positive responses (F), acquisition of conditioned reflex ([2]; s.c., 10 mg/kg, day 3): 51.6
intersignal reactions (IR) ([2]; s.c., 10 mg/kg, day 4): 8.2
negative responses (-f) ([2]; s.c., 10 mg/kg, day 4): 1.2
positive responses (F), acquisition of conditioned reflex ([2]; s.c., 10 mg/kg, day 4): 66.8
intersignal reactions (IR) ([2]; s.c., 10 mg/kg, day 5): 6.3
negative responses (-f) ([2]; s.c., 10 mg/kg, day 5): 6.2
positive responses (F), acquisition of conditioned reflex ([2]; s.c., 10 mg/kg, day 5): 65.1
intersignal reactions (IR) ([2]; s.c., 25 mg/kg, day 1): 11.1
negative responses (-f) ([2]; s.c., 25 mg/kg, day 1): 70.3
positive responses (F), acquisition of conditioned reflex ([2]; s.c., 25 mg/kg, day 1): 8.1
intersignal reactions (IR) ([2]; s.c., 25 mg/kg, day 2): 8.8
negative responses (-f) ([2]; s.c., 25 mg/kg, day 2): 41.8
positive responses (F), acquisition of conditioned reflex ([2]; s.c., 25 mg/kg, day 2): 25.3
intersignal reactions (IR) ([2]; s.c., 25 mg/kg, day 3): 7.0
negative responses (-f) ([2]; s.c., 25 mg/kg, day 3): 40.4
positive responses (F), acquisition of conditioned reflex ([2]; s.c., 25 mg/kg, day 3): 23.3
intersignal reactions (IR) ([2]; s.c., 25 mg/kg, day 4): 10.3
negative responses (-f) ([2]; s.c., 25 mg/kg, day 4): 46.3
positive responses (F), acquisition of conditioned reflex ([2]; s.c., 25 mg/kg, day 4): 30.8
intersignal reactions (IR) ([2]; s.c., 25 mg/kg, day 5): 4.0
negative responses (-f) ([2]; s.c., 25 mg/kg, day 5): 61.3
positive responses (F), acquisition of conditioned reflex ([2]; s.c., 25 mg/kg, day 5): 15.5
intersignal reactions (IR) ([2]; s.c., 50 mg/kg, day 1): 9.2
negative responses (-f) ([2]; s.c., 50 mg/kg, day 1): 66.8
positive responses (F), acquisition of conditioned reflex ([2]; s.c., 50 mg/kg, day 1): 8.9
intersignal reactions (IR) ([2]; s.c., 50 mg/kg, day 2): 7.1
negative responses (-f) ([2]; s.c., 50 mg/kg, day 2): 35.2
positive responses (F), acquisition of conditioned reflex ([2]; s.c., 50 mg/kg, day 2): 24.5
intersignal reactions (IR) ([2]; s.c., 50 mg/kg, day 3): 4.2
negative responses (-f) ([2]; s.c., 50 mg/kg, day 3): 51.5
positive responses (F), acquisition of conditioned reflex ([2]; s.c., 50 mg/kg, day 3): 20.8
intersignal reactions (IR) ([2]; s.c., 50 mg/kg, day 4): 3.3
negative responses (-f) ([2]; s.c., 50 mg/kg, day 4): 61.8
positive responses (F), acquisition of conditioned reflex ([2]; s.c., 50 mg/kg, day 4): 14.6
intersignal reactions (IR) ([2]; s.c., 50 mg/kg, day 5): 2.6
negative responses (-f) ([2]; s.c., 50 mg/kg, day 5): 72.8
positive responses (F), acquisition of conditioned reflex ([2]; s.c., 50 mg/kg, day 5): 16.2
ED50 ([5]; po): 72 mg/kg
ED50 ([5]; sc): 8 mg/kg
LD50 at 48 h ([6]; iv): 51 mg/kg
LD50 at 48 h ([6]; po, starved 16 h): 290 mg/kg
LD50 at 48 h ([6]; sc): 280 mg/kg

O=C(CCCN1CCC(O)(c2ccc(Cl)cc2)CC1)c1ccc(F)cc1 [haloperidol, reference compound]
inhibition of developing conditioned reflex ([1]; 0.025 mg/kg): strong inhibition

Cl.c1ccc2c(c1)ncc1ncsc12 [Thiazolo[4,5-c]quinoline-hydrochloride, thiazolo[4,5-c]quinoline-hydrochloride]
ED50 ([4]; po): 82 mg/kg
ED50 ([4]; sc): 32 mg/kg
inhibition of development of conditioned reflex ([1]; 10 mg/kg): strong inhibition
inhibition of development of conditioned reflex ([1]; 25 mg/kg): complete inhibition
ED50 ([5]; po): 60 mg/kg
ED50 ([5]; sc): 7.5 mg/kg
LD50 at 48 h ([6]; iv): 55 mg/kg
LD50 at 48 h ([6]; po, starved 16 h): 350 mg/kg
LD50 at 48 h ([6]; sc): 260 mg/kg
